Measurements as given in ChEMBL document CHEMBL4177611, “Discovery of aminocyclohexene analogues as selective and orally bioavailable hNav1.7 inhibitors for analgesia” (Bioorg Med Chem Lett, 2017).
Active and inactive are the calls of the source.

Assays:
[1] = Initial plasma concentration in Sprague-Dawley rat at 0.5 mg/kg administered as single iv bolus by LC-MS/MS analysis; type: ADME, organism-based
[2] = AUC in Sprague-Dawley rat at 2 mg/kg administered as single dose via oral gavage by LC-MS/MS analysis; type: ADME, organism-based; details: in vivo
[3] = Fraction unbound in human plasma at 2 uM after 4 hrs by LC-MS/MS analysis; type: ADME, cell-free
[4] = Clearance in Sprague-Dawley rat administered as single iv bolus by LC-MS/MS analysis; type: ADME, organism-based; details: in vivo
Rattus norvegicus [5] = assay: Unbound AUC (0 to last) in Sprague-Dawley rat at 2 mg/kg administered as single dose via oral gavage by LC-MS/MS analysis; type: ADME, organism-based; details: in vivo
[6] = Cmax in Sprague-Dawley rat at 2 mg/kg administered as single dose via oral gavage by LC-MS/MS analysis; type: ADME, organism-based; parameters: dose 2 mg/kg, route oral; details: in vivo
[7] = Half life in Sprague-Dawley rat at 2 mg/kg administered as single dose via oral gavage by LC-MS/MS analysis; type: ADME, organism-based; details: in vivo
[8] = Dissociation constant, pKa of the compound; type: physicochemical
[9] = Fraction unbound in rat plasma at 2 uM after 4 hrs by LC-MS/MS analysis; type: ADME, cell-free
[10] = Volume of distribution at steady state in Sprague-Dawley rat administered as single iv bolus by LC-MS/MS analysis; type: ADME, organism-based; details: in vivo, read-out: Vdss
[11] = Drug level in po dosed rat plasma treated with 5-chloro-4-(((1R,6R)-6-(ethylamino)-2-(4-fluorophenyl)cyclohex-2-enyl)methoxy)-2-fluoro-N-(thiazol-4-yl)benzenesulfonamide; type: ADME, organism-based; details: in vivo
[12] = target: Sodium channel protein type 4 subunit alpha (Homo sapiens, UniProt P35499); type: ADME
[13] = Ratio of total drug level in iv dosed rat brain to plasma measured 2 hrs post dose; type: ADME, organism-based; details: read-out: BPR
[14] = Drug uptake in Sprague-Dawley rat dorsal root ganglion at 100 mg/kg, ig measured after 2.5 hrs by LC-MS/MS analysis; type: ADME, organism-based; details: in vivo, po
[15] = target: Sodium channel protein type 9 subunit alpha (Homo sapiens, UniProt Q15858); assay: Inhibition of human Nav1.7 expressed in CHO-K1 cells at -120 mV holding potential incubated over 5 mins measured at 15 secs interval by Qpatch clamp assay; type: cell-based
Rattus norvegicus [16] = assay: Antinociceptive activity in Sprague-Dawley rat formalin-induced nociception model assessed as inhibition of formalin-induced flinches in phase 1 at 30 mg/kg, po administered via oral gavage 60 mins before formalin challenge measured for 1 hr post dose; type: functional, organism-based
[17] = Cmax in Sprague-Dawley rat at 10 mg/kg administered as single dose via oral gavage by LC-MS/MS analysis; type: ADME, organism-based; parameters: dose 10 mg/kg, route oral; details: in vivo
[18] = Plasma concentration in Sprague-Dawley rat spinal nerve ligation model at 100 mg/kg administered as single dose via oral gavage measured after 4 hrs by LC-MS/MS analysis; type: ADME, organism-based
Cytochrome P450 2C19 = Cytochrome P450 2C19 (Homo sapiens, UniProt P33261)
[19] = AUC (0 to last) in Sprague-Dawley rat at 3 mg/kg administered as single iv bolus by LC-MS/MS analysis; type: ADME, organism-based; parameters: dose 3 mg/kg, route intravenous, time 0 - last; details: in vivo
[20] = Clearance in Sprague-Dawley rat at 3 mg/kg administered as single iv bolus by LC-MS/MS analysis; type: ADME, organism-based; details: in vivo
[21] = Half life in Sprague-Dawley rat at 3 mg/kg administered as single iv bolus by LC-MS/MS analysis; type: ADME, organism-based; details: in vivo
[22] = Plasma concentration in Sprague-Dawley rat spinal nerve ligation model at 100 mg/kg administered as single dose via oral gavage measured after 2 hrs by LC-MS/MS analysis; type: ADME, organism-based
Rattus norvegicus [23] = assay: Antiallodynic activity in Sprague-Dawley rat spinal nerve ligation model assessed as reduction in mechanical allodynia by measuring paw withdrawal threshold at 100 mg/kg, po measured at 2 hrs post dose; type: functional, organism-based
[24] = Plasma concentration in Sprague-Dawley rat spinal nerve ligation model at 100 mg/kg administered as single dose via oral gavage measured after 1 hr by LC-MS/MS analysis; type: ADME, organism-based
Cytochrome P450 3A4 = Cytochrome P450 3A4 (Homo sapiens, UniProt P08684)
Cytochrome P450 1A2 = target: T1, Cytochrome P450 1A2 (Homo sapiens, UniProt P05177)
T1 sequence (P05177 whole entry): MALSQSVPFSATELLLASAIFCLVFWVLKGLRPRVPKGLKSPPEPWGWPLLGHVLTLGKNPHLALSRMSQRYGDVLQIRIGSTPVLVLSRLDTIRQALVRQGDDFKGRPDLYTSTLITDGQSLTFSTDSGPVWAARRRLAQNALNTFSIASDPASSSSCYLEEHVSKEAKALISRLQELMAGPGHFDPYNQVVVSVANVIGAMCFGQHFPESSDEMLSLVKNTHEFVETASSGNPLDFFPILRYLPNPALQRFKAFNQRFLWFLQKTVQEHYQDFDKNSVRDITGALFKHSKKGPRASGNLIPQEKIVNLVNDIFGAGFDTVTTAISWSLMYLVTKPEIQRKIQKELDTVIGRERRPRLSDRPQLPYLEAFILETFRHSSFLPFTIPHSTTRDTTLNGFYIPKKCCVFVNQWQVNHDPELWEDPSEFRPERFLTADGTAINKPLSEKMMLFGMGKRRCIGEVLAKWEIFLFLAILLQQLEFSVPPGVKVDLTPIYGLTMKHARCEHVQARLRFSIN

physchem [25] = details: buffer, pH 7.4
[26] = Unbound plasma concentration in Sprague-Dawley rat spinal nerve ligation model at 100 mg/kg administered as single dose via oral gavage measured after 2 hrs by LC-MS/MS analysis; type: ADME, organism-based; details: in vivo
[27] = Intrinsic clearance in human liver microsomes at 1 uM after 60 mins in presence of NADPH by LC-MS/MS analysis; type: ADME, microsome; details: read-out: CLH
Cytochrome P450 2C9 = Cytochrome P450 2C9 (Homo sapiens, UniProt P11712)
[28] = AUC (0 to last) in Sprague-Dawley rat at 10 mg/kg administered as single dose via oral gavage by LC-MS/MS analysis; type: ADME, organism-based; parameters: dose 10 mg/kg, route oral, time 0 - last; details: in vivo
in vitro [29] = details: human, Caco-2
Homo sapiens [30] = species on record: Homo sapiens; assay: Selectivity ratio of IC50 for human Nav1.5 expressed in HEK293 cells to IC50 for human Nav1.7 expressed in CHO-K1 cells; type: cell-based
Cytochrome P450 2D6 = Cytochrome P450 2D6 (Homo sapiens, UniProt P10635)
[31] = Volume of distribution at steady state in Sprague-Dawley rat at 3 mg/kg administered as single iv bolus by LC-MS/MS analysis; type: ADME, organism-based; details: in vivo, read-out: Vdss
[32] = Unbound plasma concentration in Sprague-Dawley rat spinal nerve ligation model at 100 mg/kg administered as single dose via oral gavage measured after 4 hrs by LC-MS/MS analysis; type: ADME, organism-based; details: in vivo
[33] = target: Sodium channel protein type 5 subunit alpha (Homo sapiens, UniProt Q14524); assay: Inhibition of human Nav1.5 expressed in HEK293 cells at -120 mV holding potential incubated over 5 mins measured at 15 secs interval by Qpatch clamp assay; type: cell-based
physchem [34] = details: buffer, pH 7.4; remark: listed apart in the source
Homo sapiens [35] = species on record: Homo sapiens; assay: Selectivity ratio of IC50 for human Nav1.4 to IC50 for human Nav1.7 expressed in CHO-K1 cells; type: cell-based
[36] = target: Voltage-gated inwardly rectifying potassium channel KCNH2 (Homo sapiens, UniProt Q12809)
[37] = Oral bioavailability in Sprague-Dawley rat at 10 mg/kg administered as single dose via gavage by LC-MS/MS analysis; type: ADME, organism-based; details: in vivo
Rattus norvegicus [38] = assay: Antinociceptive activity in Sprague-Dawley rat formalin-induced nociception model assessed as inhibition of formalin-induced flinches in phase 2 at 30 mg/kg, po administered via oral gavage 60 mins before formalin challenge measured for 1 hr post dose; type: functional, organism-based
[39] = Tmax in Sprague-Dawley rat at 10 mg/kg administered as single dose via oral gavage by LC-MS/MS analysis; type: ADME, organism-based; details: in vivo
[40] = AUC in Sprague-Dawley rat at 10 mg/kg administered as single dose via oral gavage by LC-MS/MS analysis; type: ADME, organism-based; details: in vivo
[41] = Intrinsic clearance in rat liver microsomes at 1 uM after 60 mins in presence of NADPH by LC-MS/MS analysis; type: ADME, microsome; details: read-out: CLH
[42] = Half life in Sprague-Dawley rat at 10 mg/kg administered as single dose via oral gavage by LC-MS/MS analysis; type: ADME, organism-based; details: in vivo
[43] = Initial plasma concentration in Sprague-Dawley rat at 3 mg/kg administered as single iv bolus by LC-MS/MS analysis; type: ADME, organism-based
Rattus norvegicus [44] = assay: Unbound AUC (0 to last) in Sprague-Dawley rat at 10 mg/kg administered as single dose via oral gavage by LC-MS/MS analysis; type: ADME, organism-based; details: in vivo
in vitro [45] = details: human, Caco-2; remark: listed apart in the source
[46] = Unbound plasma concentration in Sprague-Dawley rat spinal nerve ligation model at 100 mg/kg administered as single dose via oral gavage measured after 1 hr by LC-MS/MS analysis; type: ADME, organism-based; details: in vivo

Sequence of Sodium channel protein type 4 subunit alpha (P35499 whole entry): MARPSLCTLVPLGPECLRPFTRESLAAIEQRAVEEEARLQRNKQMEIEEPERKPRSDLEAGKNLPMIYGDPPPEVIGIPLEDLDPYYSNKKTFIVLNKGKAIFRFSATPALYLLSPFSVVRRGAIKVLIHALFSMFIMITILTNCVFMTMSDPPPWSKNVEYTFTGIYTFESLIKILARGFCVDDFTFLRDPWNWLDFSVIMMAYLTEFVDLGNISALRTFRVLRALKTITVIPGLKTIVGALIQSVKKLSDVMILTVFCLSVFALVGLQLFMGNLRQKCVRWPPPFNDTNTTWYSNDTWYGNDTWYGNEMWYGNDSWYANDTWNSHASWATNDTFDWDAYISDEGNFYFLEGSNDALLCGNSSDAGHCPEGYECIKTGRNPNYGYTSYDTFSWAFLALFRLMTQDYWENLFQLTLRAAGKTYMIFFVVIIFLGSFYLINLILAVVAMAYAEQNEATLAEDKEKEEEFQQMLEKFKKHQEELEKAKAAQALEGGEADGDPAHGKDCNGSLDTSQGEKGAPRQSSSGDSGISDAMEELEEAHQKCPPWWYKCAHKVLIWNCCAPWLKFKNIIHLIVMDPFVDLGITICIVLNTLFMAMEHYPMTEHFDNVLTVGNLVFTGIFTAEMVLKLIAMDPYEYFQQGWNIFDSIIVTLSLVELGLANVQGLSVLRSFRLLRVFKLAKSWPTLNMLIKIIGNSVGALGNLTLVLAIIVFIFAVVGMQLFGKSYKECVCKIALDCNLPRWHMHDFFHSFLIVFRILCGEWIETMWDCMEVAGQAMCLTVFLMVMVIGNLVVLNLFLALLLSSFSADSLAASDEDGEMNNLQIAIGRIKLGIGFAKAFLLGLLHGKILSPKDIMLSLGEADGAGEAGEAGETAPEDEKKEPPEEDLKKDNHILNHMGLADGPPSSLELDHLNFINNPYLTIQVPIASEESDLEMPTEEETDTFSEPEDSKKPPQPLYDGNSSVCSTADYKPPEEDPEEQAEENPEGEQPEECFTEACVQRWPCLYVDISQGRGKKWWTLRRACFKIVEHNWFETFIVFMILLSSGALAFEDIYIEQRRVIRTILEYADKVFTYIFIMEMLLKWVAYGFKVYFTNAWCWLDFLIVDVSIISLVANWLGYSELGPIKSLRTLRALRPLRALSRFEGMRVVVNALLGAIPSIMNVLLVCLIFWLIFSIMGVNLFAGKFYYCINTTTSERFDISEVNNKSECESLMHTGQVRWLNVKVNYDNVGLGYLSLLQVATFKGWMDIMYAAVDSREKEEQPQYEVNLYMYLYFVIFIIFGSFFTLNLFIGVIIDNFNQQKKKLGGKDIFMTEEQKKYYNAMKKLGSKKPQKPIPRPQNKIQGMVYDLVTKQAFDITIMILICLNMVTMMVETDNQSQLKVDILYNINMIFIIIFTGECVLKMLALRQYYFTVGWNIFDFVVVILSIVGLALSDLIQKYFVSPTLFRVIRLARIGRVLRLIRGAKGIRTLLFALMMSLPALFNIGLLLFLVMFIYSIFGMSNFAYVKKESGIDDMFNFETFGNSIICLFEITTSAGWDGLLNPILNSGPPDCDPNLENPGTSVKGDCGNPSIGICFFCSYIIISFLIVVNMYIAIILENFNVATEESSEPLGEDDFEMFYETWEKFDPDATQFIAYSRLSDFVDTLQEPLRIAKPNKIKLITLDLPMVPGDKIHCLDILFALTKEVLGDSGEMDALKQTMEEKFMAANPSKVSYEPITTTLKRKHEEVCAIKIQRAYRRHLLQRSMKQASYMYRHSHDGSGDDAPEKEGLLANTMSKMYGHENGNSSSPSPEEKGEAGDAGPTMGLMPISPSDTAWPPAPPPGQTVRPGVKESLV
Sequence of Voltage-gated inwardly rectifying potassium channel KCNH2 (Q12809 whole entry): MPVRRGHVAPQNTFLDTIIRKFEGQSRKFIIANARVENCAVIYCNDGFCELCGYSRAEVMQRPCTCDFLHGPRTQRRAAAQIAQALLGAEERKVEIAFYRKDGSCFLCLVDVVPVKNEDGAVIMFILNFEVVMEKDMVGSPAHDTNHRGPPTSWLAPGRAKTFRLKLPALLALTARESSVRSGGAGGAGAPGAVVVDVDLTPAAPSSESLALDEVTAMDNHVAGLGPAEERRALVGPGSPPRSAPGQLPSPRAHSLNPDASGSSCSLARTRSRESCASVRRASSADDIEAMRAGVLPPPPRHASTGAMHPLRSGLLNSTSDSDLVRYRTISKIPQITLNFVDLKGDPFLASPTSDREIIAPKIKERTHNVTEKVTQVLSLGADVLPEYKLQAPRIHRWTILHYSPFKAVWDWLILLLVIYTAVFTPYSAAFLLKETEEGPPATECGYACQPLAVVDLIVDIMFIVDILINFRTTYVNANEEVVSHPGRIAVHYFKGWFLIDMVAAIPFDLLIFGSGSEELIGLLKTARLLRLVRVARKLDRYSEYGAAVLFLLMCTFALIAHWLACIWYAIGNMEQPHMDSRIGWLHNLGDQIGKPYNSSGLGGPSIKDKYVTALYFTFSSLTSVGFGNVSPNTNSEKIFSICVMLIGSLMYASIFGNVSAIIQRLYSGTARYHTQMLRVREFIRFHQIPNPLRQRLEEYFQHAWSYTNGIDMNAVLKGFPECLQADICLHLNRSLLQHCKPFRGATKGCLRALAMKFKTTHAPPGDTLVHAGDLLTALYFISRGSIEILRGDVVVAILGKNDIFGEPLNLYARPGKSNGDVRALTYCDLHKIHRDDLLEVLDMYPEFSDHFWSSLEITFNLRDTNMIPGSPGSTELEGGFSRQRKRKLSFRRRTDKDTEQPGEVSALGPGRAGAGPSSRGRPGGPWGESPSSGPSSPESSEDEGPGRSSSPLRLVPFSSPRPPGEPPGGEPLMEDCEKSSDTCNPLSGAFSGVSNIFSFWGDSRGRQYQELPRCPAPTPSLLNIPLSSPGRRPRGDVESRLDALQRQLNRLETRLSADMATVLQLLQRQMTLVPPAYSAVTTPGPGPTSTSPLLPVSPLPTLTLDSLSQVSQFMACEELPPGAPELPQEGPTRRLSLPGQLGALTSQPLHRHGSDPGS
Sequence of Cytochrome P450 2C19 (P33261 whole entry): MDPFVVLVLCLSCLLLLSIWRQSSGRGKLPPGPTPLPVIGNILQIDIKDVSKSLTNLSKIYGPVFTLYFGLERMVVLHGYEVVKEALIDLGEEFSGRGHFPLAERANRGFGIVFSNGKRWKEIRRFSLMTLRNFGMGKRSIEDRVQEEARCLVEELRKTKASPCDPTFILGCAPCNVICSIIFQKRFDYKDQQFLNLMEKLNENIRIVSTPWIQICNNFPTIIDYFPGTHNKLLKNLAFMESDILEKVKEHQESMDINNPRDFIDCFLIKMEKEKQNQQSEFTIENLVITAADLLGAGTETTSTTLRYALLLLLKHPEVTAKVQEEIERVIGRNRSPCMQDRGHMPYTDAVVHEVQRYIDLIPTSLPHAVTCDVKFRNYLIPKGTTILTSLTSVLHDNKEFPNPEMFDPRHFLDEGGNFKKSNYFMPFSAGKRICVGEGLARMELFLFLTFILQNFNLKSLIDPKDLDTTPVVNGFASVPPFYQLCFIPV
Sequence of Cytochrome P450 2D6 (P10635 whole entry): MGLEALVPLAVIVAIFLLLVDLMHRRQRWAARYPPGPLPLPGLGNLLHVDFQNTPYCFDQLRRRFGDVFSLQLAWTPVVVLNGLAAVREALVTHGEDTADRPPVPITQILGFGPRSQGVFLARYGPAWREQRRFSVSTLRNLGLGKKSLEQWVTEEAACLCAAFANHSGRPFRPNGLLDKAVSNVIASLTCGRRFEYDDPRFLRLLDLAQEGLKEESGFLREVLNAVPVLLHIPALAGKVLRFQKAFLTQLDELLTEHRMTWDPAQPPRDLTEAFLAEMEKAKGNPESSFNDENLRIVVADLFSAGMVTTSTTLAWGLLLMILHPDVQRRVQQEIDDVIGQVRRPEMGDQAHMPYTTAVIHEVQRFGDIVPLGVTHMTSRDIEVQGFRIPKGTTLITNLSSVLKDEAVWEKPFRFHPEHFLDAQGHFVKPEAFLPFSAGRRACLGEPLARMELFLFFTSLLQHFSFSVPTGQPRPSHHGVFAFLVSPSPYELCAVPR
Sequence of Cytochrome P450 3A4 (P08684 whole entry): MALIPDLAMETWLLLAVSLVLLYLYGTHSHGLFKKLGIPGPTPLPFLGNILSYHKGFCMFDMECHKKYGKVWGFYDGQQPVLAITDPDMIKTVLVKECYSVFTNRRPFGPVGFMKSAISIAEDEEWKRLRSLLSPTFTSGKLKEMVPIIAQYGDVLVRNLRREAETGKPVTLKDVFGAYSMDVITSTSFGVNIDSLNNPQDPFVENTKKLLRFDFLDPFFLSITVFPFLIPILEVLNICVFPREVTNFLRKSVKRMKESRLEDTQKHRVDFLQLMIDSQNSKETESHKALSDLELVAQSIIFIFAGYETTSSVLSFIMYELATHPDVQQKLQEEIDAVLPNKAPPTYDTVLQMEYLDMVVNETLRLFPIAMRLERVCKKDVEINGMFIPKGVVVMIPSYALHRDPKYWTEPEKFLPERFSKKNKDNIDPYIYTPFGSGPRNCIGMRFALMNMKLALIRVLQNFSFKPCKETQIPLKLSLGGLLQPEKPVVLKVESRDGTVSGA
Sequence of Cytochrome P450 2C9 (P11712 whole entry): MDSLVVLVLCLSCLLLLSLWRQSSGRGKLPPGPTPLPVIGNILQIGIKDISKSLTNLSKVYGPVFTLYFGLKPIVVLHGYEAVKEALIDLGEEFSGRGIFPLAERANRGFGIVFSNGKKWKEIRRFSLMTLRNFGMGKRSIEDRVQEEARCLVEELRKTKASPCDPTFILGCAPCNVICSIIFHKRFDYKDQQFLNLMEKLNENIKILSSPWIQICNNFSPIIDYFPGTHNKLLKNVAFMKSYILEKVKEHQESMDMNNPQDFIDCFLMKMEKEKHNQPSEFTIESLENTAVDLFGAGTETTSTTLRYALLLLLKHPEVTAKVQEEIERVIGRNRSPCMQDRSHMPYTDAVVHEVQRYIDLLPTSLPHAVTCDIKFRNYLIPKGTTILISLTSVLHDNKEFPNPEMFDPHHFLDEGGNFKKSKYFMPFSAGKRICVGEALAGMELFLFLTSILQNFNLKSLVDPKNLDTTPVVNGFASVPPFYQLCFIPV

N[C@@H]1CCC=C(c2ccc(F)cc2)[C@H]1COc1cc(F)c(S(=O)(=O)Nc2cscn2)cc1Cl
C0 [1]: 410 nM | AUC [2]: 0.25 µM·h | fraction unbound at 4 h, 2 µM [3]: 0.008 | clearance [4]: 39 to 39.2 mL/min/kg | fAUClast (Rattus norvegicus [5]): 0.005 µM·h | Cmax [6]: 50 nM | half-life [7]: 2.74 h | pKa [8]: 6.13 to 9.05 | fraction unbound at 4 h, 2 µM [9]: 0.02 | Vd [10]: 8.91 L/kg | Drug uptake [11]: Active | IC50 [12]: 4 µM | Kp at 2 h [13]: 0.13

Cl.N[C@@H]1CCC=C(c2ccc(F)cc2)[C@H]1CNc1cc(F)c(S(=O)(=O)Nc2cscn2)cc1Cl
Drug uptake [14]: 3.1 µM/g | IC50 [15]: 0.088 µM | inhibition (Rattus norvegicus [16]): inactive | Cmax [17]: 660 nM | fraction unbound at 4 h, 2 µM [3]: 0.004 | concentration at 4 h [18]: 3160 nM | IC50 (Cytochrome P450 2C19): 26.2 µM | AUC(0-t) [19]: 4.92 µM·h | clearance [20]: 19.8 mL/min/kg | half-life [21]: 3.64 h | concentration at 2 h [22]: 3820 nM | Activity (Rattus norvegicus [23]): Active | concentration at 1 h [24]: 3740 nM | IC50 (Cytochrome P450 3A4): 33 µM | IC50 (Cytochrome P450 1A2): > 50 µM | logD (physchem [25]): 1.5 | Cp(f) [26]: 110 nM | clearance [4]: 19.8 mL/min/kg | CLint scaled at 1 µM [27]: 17.5 mL/min/kg | IC50 (Cytochrome P450 2C9): 11.8 µM | AUC(0-t) [28]: 4.86 µM·h | efflux ratio at 2 h, 2 µM (in vitro [29]): 251 | Ratio IC50 (Homo sapiens [30]): > 30 | IC50 (Cytochrome P450 2D6): 3 µM | Vd [31]: 5.77 L/kg | Cp(f) [32]: 91 nM | IC50 [33]: 4.02 µM | solubility thermodynamic (physchem [34]): 135 µM | Ratio IC50 (Homo sapiens [35]): > 30 | IC50 [36]: 4.6 µM | pKa [8]: 7.09 to 9.18 | fraction unbound at 4 h, 2 µM [9]: 0.029 | Vd [10]: 5.77 L/kg | bioavailability [37]: 30% | IC50 [12]: 2.9 µM | inhibition (Rattus norvegicus [38]): Active | Tmax [39]: 2.67 h | AUC [40]: 4.86 µM·h | CLint scaled at 1 µM [41]: 30.4 mL/min/kg | half-life [42]: 3.39 h | C0 [43]: 2800 nM | fAUClast (Rattus norvegicus [44]): 0.141 µM·h | Papp A→B at 2 h, 2 µM (in vitro [45]): 0.04 ×10⁻⁶ cm/s | Cp(f) [46]: 108 nM
